Assay results from PubChem BioAssay AID330 (DTP/NCI, 2004).
Several values for one entry are separate records, joined by “and”; a condition that tells them apart may be missing. Equal entries are not always repeated. Toxic doses and inconclusive results are not listed.

System: P388 leukemia ip, CD2F1 mice, survival T/C
Assay: NCI In Vivo Anticancer Drug Screen. Data for tumor model P388 Leukemia (intraperitoneal) in CD2F1 (CDF1) mice
Conditions: endpoint: median survival time, higher = longer survival
Method: The antitumor activity of compounds was measured in mice bearing transplantable tumors. Survival or tumor size were measured and the results are expressed as the measurement made in the treated group (T) divided by the measurement made in the vehicle treated control group (C). The tumor model used in this assay is P388 Leukemia (intraperitoneal) in CD2F1 (CDF1) mice

[1] = dose: 50.0 mg/kg/injection, schedule: Q01DX009 (ip), vehicle: Klucel (hydroxypropylcellulose) (HPC)
[2] = dose: 100.0 mg/kg/injection, schedule: Q01DX009 (ip), vehicle: Klucel (hydroxypropylcellulose) (HPC)
[3] = dose: 50.0 mg/kg/injection, schedule: Q01DX005 (ip), vehicle: saline with Tween-80
[4] = dose: 100.0 mg/kg/injection, schedule: Q01DX005 (ip), vehicle: saline with Tween-80
[5] = dose: 200.0 mg/kg/injection, schedule: Q01DX009 (ip), vehicle: Klucel (hydroxypropylcellulose) (HPC)
[6] = dose: 50.0 mg/kg/injection, schedule: Q01DX009 (ip), vehicle: saline
[7] = dose: 100.0 mg/kg/injection, schedule: Q01DX009 (ip), vehicle: saline
[8] = dose: 100.0 mg/kg/injection, schedule: Q01DX009 (ip), vehicle: saline with Tween-80

**Q.** Which T/C (dose: 50.0 mg/kg/injection, schedule: Q01DX005 (ip), vehicle: Klucel (hydroxypropylcellulose) (HPC)) does the source give for `C=C1C(=O)N2CCc3c([nH]c4ccccc34)[C@H]2C[C@@H]1CO` here?
**A.** 95 % of control

**Q.** What about the T/C (dose: 100.0 mg/kg/injection, schedule: Q01DX005 (ip), vehicle: Klucel (hydroxypropylcellulose) (HPC)) of the same compound?
**A.** 88 % of control

**Q.** What about the T/C (dose: 200.0 mg/kg/injection, schedule: Q01DX005 (ip), vehicle: Klucel (hydroxypropylcellulose) (HPC)) of the same compound?
**A.** 96 % of control

**Q.** With `Cn1c(=O)c2[nH]c(Cc3ccsc3)nc2n(C)c1=O` as the compound, how does the T/C (dose: 25.0 mg/kg/injection, schedule: Q01DX009 (ip), vehicle: Klucel (hydroxypropylcellulose) (HPC)) read?
**A.** 110 % of control

**Q.** And the T/C [1]?
**A.** 93 % of control

**Q.** What about the T/C [2] of the same compound?
**A.** 99 % of control and 95 % of control

**Q.** Which T/C [3] does the source give for `Cc1ccc(N(C)c2cc(=O)n(C)c(=O)[nH]2)cc1C` here?
**A.** 94 % of control

**Q.** And the T/C [4]?
**A.** 103 % of control

**Q.** Which results are given for `CCN(CC)c1cccc(OC(=O)Nc2cccc(Cl)c2Cl)c1`?
**A.** T/C (dose: 60.0 mg/kg/injection, schedule: Q01DX005 (ip), vehicle: saline with Tween-80): 100 % of control; T/C (dose: 120.0 mg/kg/injection, schedule: Q01DX005 (ip), vehicle: saline with Tween-80): 100 % of control; T/C (dose: 240.0 mg/kg/injection, schedule: Q01DX005 (ip), vehicle: saline with Tween-80): 92 % of control

**Q.** `O=C1CC2(CCCC2)C(=O)N1c1cccc([N+](=O)[O-])c1` was tested. Which T/C [1] did it give?
**A.** 92 % of control

**Q.** What about the T/C [2] of the same compound?
**A.** 106 % of control

**Q.** And the T/C [5]?
**A.** 101 % of control

**Q.** For `Nc1nc(F)nc2c1ncn2C1OC(CO)C(O)C1O` (stereo unspecified), which T/C (dose: 53.0 mg/kg/injection, schedule: Q03HX024 (ip), vehicle: saline with Tween-80) is on record?
**A.** 253 % of control

**Q.** What about the T/C (dose: 80.0 mg/kg/injection, schedule: Q03HX024 (ip), vehicle: saline with Tween-80) of the same compound?
**A.** 283 % of control

**Q.** And the T/C (dose: 120.0 mg/kg/injection, schedule: Q03HX024 (ip), vehicle: saline with Tween-80)?
**A.** 123 % of control

**Q.** How did the T/C [1] turn out when `C/C=c1/[nH]c(=O)/c(=C\c2ccc(Cl)cc2)[nH]c1=O` was run?
**A.** 91 % of control

**Q.** What about the T/C [2] of the same compound?
**A.** 93 % of control

**Q.** What about the T/C [5] of the same compound?
**A.** 94 % of control

**Q.** With `C=C1C(=O)C23CC1CC(O)C2C12COC(O)C1C(C)(C)CCC2OC3=O` (stereo unspecified) as the compound, how does the T/C (dose: 1.25 mg/kg/injection, schedule: Q01DX009 (ip), vehicle: saline with Tween-80) read?
**A.** 108 % of control

**Q.** What about the T/C (dose: 2.5 mg/kg/injection, schedule: Q01DX009 (ip), vehicle: saline with Tween-80) of the same compound?
**A.** 99 % of control

**Q.** And the T/C (dose: 5.0 mg/kg/injection, schedule: Q01DX009 (ip), vehicle: saline with Tween-80)?
**A.** 102 % of control and 120 % of control

**Q.** And the T/C (dose: 10.0 mg/kg/injection, schedule: Q01DX009 (ip), vehicle: saline with Tween-80)?
**A.** 106 % of control and 115 % of control

**Q.** What about the T/C (dose: 20.0 mg/kg/injection, schedule: Q01DX009 (ip), vehicle: saline with Tween-80) of the same compound?
**A.** 116 % of control and 118 % of control

**Q.** What about the T/C (dose: 40.0 mg/kg/injection, schedule: Q01DX009 (ip), vehicle: saline with Tween-80) of the same compound?
**A.** 118 % of control and 124 % of control

**Q.** What about the T/C (dose: 80.0 mg/kg/injection, schedule: Q01DX009 (ip), vehicle: saline with Tween-80) of the same compound?
**A.** 89 % of control

**Q.** For `CCOC(=O)/C=C(\C)NC(C)=NC(C)(C)C`, which T/C [6] is on record?
**A.** 93 % of control

**Q.** And the T/C [7]?
**A.** 89 % of control

**Q.** `CC(C)(OC(C)(C)C(=O)O)C(=O)O` was tested. Which T/C [6] did it give?
**A.** 99 % of control

**Q.** And the T/C [7]?
**A.** 94 % of control

**Q.** What about the T/C (dose: 200.0 mg/kg/injection, schedule: Q01DX009 (ip), vehicle: saline) of the same compound?
**A.** 92 % of control

**Q.** Which results are given for `N=C(N)N`?
**A.** T/C (dose: 50.0 mg/kg/injection, schedule: Q01DX009 (ip), vehicle: saline with Tween-80): 100 % of control; T/C [8]: 100 % of control

**Q.** With `Nc1nc(-c2ccc(Cl)cc2)nc2sc3c(c12)CCCCC3` as the compound, how does the T/C [3] read?
**A.** 90 % of control

**Q.** What about the T/C [4] of the same compound?
**A.** 90 % of control

**Q.** And the T/C (dose: 200.0 mg/kg/injection, schedule: Q01DX005 (ip), vehicle: saline with Tween-80)?
**A.** 95 % of control

**Q.** What does the source list for `O=[N+]([O-])C1C(O)CSCC1O` (stereo unspecified)?
**A.** T/C (dose: 100.0 mg/kg/injection, schedule: Q01DX001 (ip), vehicle: saline with Tween-80): 104 % of control; T/C (dose: 200.0 mg/kg/injection, schedule: Q01DX001 (ip), vehicle: saline with Tween-80): 104 % of control; T/C (dose: 400.0 mg/kg/injection, schedule: Q01DX001 (ip), vehicle: saline with Tween-80): 107 % of control

**Q.** What does the source list for `CCOC(=O)c1ccc(N(CC)CC)cc1`?
**A.** T/C [8]: 100 % of control; T/C (dose: 200.0 mg/kg/injection, schedule: Q01DX009 (ip), vehicle: saline with Tween-80): 104 % of control; T/C (dose: 400.0 mg/kg/injection, schedule: Q01DX009 (ip), vehicle: saline with Tween-80): 100 % of control

**Q.** What does the source list for `CC12CCC3C(CCC4N(CCCl)CCCC34C)C1CCC2O` (stereo unspecified)?
**A.** T/C (dose: 25.0 mg/kg/injection, schedule: Q01DX001 (ip), vehicle: saline): 101 % of control; T/C (dose: 50.0 mg/kg/injection, schedule: Q01DX001 (ip), vehicle: saline): 109 % of control; T/C (dose: 100.0 mg/kg/injection, schedule: Q01DX001 (ip), vehicle: saline): 111 % of control
